# Reference: ChEMBL document CHEMBL3044667, “Insecticidal activities of crude extracts and phospholipids from Chenopodium ficifolium against melon and cotton aphid, Aphis gossypii” (2010)
# Calls of active or inactive are those of the source. The rule behind the calls is not given here.
# Key:
# Aphis gossypii [1] = test: Insecticidal activity against Aphis gossypii (cotton aphid) infested fourth-leaf stage cucumber seedlings followed by compound exposure at 1000 ug/ml assessed as induction of insect death on leaves after 48 hr post compound treatment relative to untreated control; assay type: functional, organism-based
# Aphis gossypii [2] = test: Insecticidal activity against Aphis gossypii (cotton aphid) infested fourth-leaf stage cucumber seedlings followed by compound exposure assessed as insect control after 48 hr post compound treatment relative to untreated control; assay type: functional, organism-based
structure (smiles),measurement,setting,value
CCCCCCCCCCCCC=CCC(=O)OC(COC(=O)CCCCCCCCCCCCCCC)COP(=O)(O)OCC(O)CO (configuration not stated),Activity,Aphis gossypii [1],Active
same,Activity,Aphis gossypii [2],Dose-dependent effect
